± gives the expanded uncertainty stated by the source.
Assay: xn = mol fraction of the nth substance listed
Settings: 101 kPa, Liquid; for viscosity: Concentric cylinders viscometry; for speed of sound: Single path-length method; for mass density: Vibrating tube method

CCCCCCCC/C=C\CCCCCCCC(=O)OCC [ethyl (Z)-9-octadeceneoate] + CCCO
Settings | mass density [kg/m3] | speed of sound [m/s] | viscosity [mPa·s]
293.15 K, x2 = 0 | 868.91 ± 1 | 1394.2 ± 2 | 6.413 ± 0.068
293.15 K, x2 = 0.1 | 867.29 ± 0.97 | 1389.8 ± 1.9 | 6.028 ± 0.06
293.15 K, x2 = 0.2 | 865.42 ± 0.93 | 1384.1 ± 1.7 | 5.695 ± 0.053
293.15 K, x2 = 0.3 | 863.2 ± 0.9 | 1377.6 ± 1.6 | 5.368 ± 0.046
293.15 K, x2 = 0.4 | 860.5 ± 0.87 | 1370 ± 1.4 | 5.016 ± 0.04
293.15 K, x2 = 0.5 | 857.13 ± 0.85 | 1360.7 ± 1.3 | 4.643 ± 0.034
293.15 K, x2 = 0.6 | 852.82 ± 0.84 | 1349.2 ± 1.1 | 4.238 ± 0.029
293.15 K, x2 = 0.7 | 846.96 ± 0.82 | 1333.8 ± 0.96 | 3.8 ± 0.024
293.15 K, x2 = 0.8 | 838.72 ± 0.82 | 1312.4 ± 0.81 | 3.299 ± 0.02
293.15 K, x2 = 0.9 | 826.05 ± 0.81 | 1279 ± 0.67 | 2.748 ± 0.016
298.15 K, x2 = 0 | 865.27 ± 1 | 1376.2 ± 2 | 5.653 ± 0.06
298.15 K, x2 = 0.1 | 863.62 ± 0.97 | 1371.8 ± 1.9 | 5.318 ± 0.053
298.15 K, x2 = 0.2 | 861.71 ± 0.93 | 1366.1 ± 1.7 | 5.028 ± 0.047
298.15 K, x2 = 0.3 | 859.46 ± 0.9 | 1359.7 ± 1.6 | 4.736 ± 0.041
298.15 K, x2 = 0.4 | 856.73 ± 0.87 | 1352 ± 1.4 | 4.427 ± 0.036
298.15 K, x2 = 0.5 | 853.33 ± 0.85 | 1342.7 ± 1.3 | 4.102 ± 0.031
298.15 K, x2 = 0.6 | 848.98 ± 0.84 | 1331.2 ± 1.1 | 3.742 ± 0.026
298.15 K, x2 = 0.7 | 843.08 ± 0.82 | 1315.9 ± 0.96 | 3.357 ± 0.022
298.15 K, x2 = 0.8 | 834.8 ± 0.82 | 1294.6 ± 0.81 | 2.93 ± 0.018
298.15 K, x2 = 0.9 | 822.08 ± 0.81 | 1261.3 ± 0.67 | 2.455 ± 0.015
303.15 K, x2 = 0 | 861.63 ± 1 | 1358.4 ± 2 | 4.986 ± 0.053
303.15 K, x2 = 0.1 | 859.95 ± 0.97 | 1353.9 ± 1.9 | 4.693 ± 0.047
303.15 K, x2 = 0.2 | 858.01 ± 0.93 | 1348.3 ± 1.7 | 4.435 ± 0.042
303.15 K, x2 = 0.3 | 855.72 ± 0.89 | 1341.8 ± 1.6 | 4.183 ± 0.037
303.15 K, x2 = 0.4 | 852.96 ± 0.87 | 1334.2 ± 1.4 | 3.915 ± 0.032
303.15 K, x2 = 0.5 | 849.52 ± 0.85 | 1324.8 ± 1.3 | 3.629 ± 0.028
303.15 K, x2 = 0.6 | 845.14 ± 0.84 | 1313.4 ± 1.1 | 3.312 ± 0.024
303.15 K, x2 = 0.7 | 839.19 ± 0.82 | 1298.1 ± 0.96 | 2.98 ± 0.02
303.15 K, x2 = 0.8 | 830.87 ± 0.82 | 1276.9 ± 0.81 | 2.603 ± 0.017
303.15 K, x2 = 0.9 | 818.09 ± 0.81 | 1243.8 ± 0.67 | 2.186 ± 0.014
308.15 K, x2 = 0 | 858.01 ± 1 | 1340.8 ± 2 | 4.424 ± 0.048
308.15 K, x2 = 0.1 | 856.28 ± 0.97 | 1336.3 ± 1.9 | 4.167 ± 0.042
308.15 K, x2 = 0.2 | 854.3 ± 0.93 | 1330.6 ± 1.7 | 3.94 ± 0.037
308.15 K, x2 = 0.3 | 851.98 ± 0.89 | 1324.2 ± 1.6 | 3.719 ± 0.033
308.15 K, x2 = 0.4 | 849.18 ± 0.87 | 1316.5 ± 1.4 | 3.482 ± 0.029
308.15 K, x2 = 0.5 | 845.71 ± 0.85 | 1307.2 ± 1.3 | 3.23 ± 0.025
308.15 K, x2 = 0.6 | 841.28 ± 0.84 | 1295.7 ± 1.1 | 2.956 ± 0.021
308.15 K, x2 = 0.7 | 835.29 ± 0.83 | 1280.4 ± 0.96 | 2.657 ± 0.018
308.15 K, x2 = 0.8 | 826.92 ± 0.82 | 1259.4 ± 0.81 | 2.324 ± 0.015
308.15 K, x2 = 0.9 | 814.08 ± 0.81 | 1226.5 ± 0.67 | 1.955 ± 0.013
313.15 K, x2 = 0 | 854.39 ± 1 | 1323.3 ± 2 | 3.919 ± 0.042
313.15 K, x2 = 0.1 | 852.62 ± 0.96 | 1318.8 ± 1.9 | 3.697 ± 0.038
313.15 K, x2 = 0.2 | 850.61 ± 0.93 | 1313.1 ± 1.7 | 3.497 ± 0.033
313.15 K, x2 = 0.3 | 848.24 ± 0.89 | 1306.6 ± 1.6 | 3.305 ± 0.03
313.15 K, x2 = 0.4 | 845.4 ± 0.87 | 1299 ± 1.4 | 3.1 ± 0.026
313.15 K, x2 = 0.5 | 841.89 ± 0.85 | 1289.6 ± 1.3 | 2.882 ± 0.023
313.15 K, x2 = 0.6 | 837.41 ± 0.84 | 1278.2 ± 1.1 | 2.645 ± 0.02
313.15 K, x2 = 0.7 | 831.37 ± 0.83 | 1262.9 ± 0.96 | 2.384 ± 0.017
313.15 K, x2 = 0.8 | 822.94 ± 0.82 | 1241.9 ± 0.81 | 2.09 ± 0.015
313.15 K, x2 = 0.9 | 810.04 ± 0.81 | 1209.2 ± 0.67 | 1.76 ± 0.013
318.15 K, x2 = 0 | – | 1306 ± 2 | 3.554 ± 0.039
318.15 K, x2 = 0.1 | – | 1301.4 ± 1.9 | 3.354 ± 0.034
318.15 K, x2 = 0.2 | – | 1295.7 ± 1.7 | 3.171 ± 0.031
318.15 K, x2 = 0.3 | – | 1289.2 ± 1.6 | 2.996 ± 0.027
318.15 K, x2 = 0.4 | – | 1281.6 ± 1.4 | 2.808 ± 0.024
318.15 K, x2 = 0.5 | – | – | 2.606 ± 0.021
318.15 K, x2 = 0.6 | – | – | 2.388 ± 0.018
318.15 K, x2 = 0.7 | – | – | 2.147 ± 0.016
318.15 K, x2 = 0.8 | – | – | 1.882 ± 0.014
318.15 K, x2 = 0.9 | – | – | 1.584 ± 0.012
